Measurements from the supplement of paper PMC10307832.

What was measured:
Assay in all cases: relative viability (nuclei count vs DMSO), 5 days (fraction); higher = more cells survive
[1] = compound: CN1CCC(CC1)OC2=CC(=C(C=C2)NC3=NC=C4C(=N3)N(C(=O)N4C)C5CCCC5)OC [AZ3146] + CS(=O)(=O)CCNCc1ccc(-c2ccc3ncnc(Nc4ccc(OCc5cccc(F)c5)c(Cl)c4)c3c2)o1 [Lapatinib] (partner 2 µM)
How it was run: (§1)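 The day after seeding in 1536-well plates, lung cancer cell lines were treated by pin tool with a single drug, or with a fixed anchor-drug dose together with five library-drug doses (not always all listed) in √10 steps. After 5 days, a combined fix-and-stain solution (final 0.05% Triton X-100, 1% formaldehyde, 1 ug/ml Hoechst) was added. Nuclei counted on 4× images gave relative viability as treated counts over vehicle counts, reported as the median of duplicate plates.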

[2] = compound: CCOC(=O)CCNc1cc(N2CCc3ccccc3CC2)nc(-c2ccccn2)n1 [GSK-J4] + N=C(N)NC(=N)NCCc1ccccc1 [Phenformin] (partner 250 µM)
How it was run: as §1

[3] = compound: CN1CCC(CC1)OC2=CC(=C(C=C2)NC3=NC=C4C(=N3)N(C(=O)N4C)C5CCCC5)OC [AZ3146] + CC(C)C[C@H](NC(=O)[C@H](Cc1ccccc1)NC(=O)c1cnccn1)B(O)O [Bortezomib] (partner 0.002 µM)
How it was run: as §1

[4] = compound: CCOC(=O)CCNc1cc(N2CCc3ccccc3CC2)nc(-c2ccccn2)n1 [GSK-J4] + Cc1cc(Nc2cc(N3CCN(C)CC3)nc(Sc3ccc(NC(=O)C4CC4)cc3)n2)n[nH]1 [Tozasertib] (partner 0.1 µM)
How it was run: as §1

Row | Cell Line | relative viability ([1]; first compound 0.08 µM) | relative viability ([1]; first compound 0.253 µM) | relative viability ([1]; first compound 0.8 µM) | relative viability ([1]; first compound 2.53 µM) | relative viability ([1]; first compound 8 µM) | relative viability ([2]; first compound 0.5 µM) | relative viability ([2]; first compound 5 µM) | relative viability ([2]; first compound 15.81 µM) | relative viability ([2]; first compound 50 µM) | relative viability ([3]; first compound 0.08 µM) | relative viability ([3]; first compound 0.253 µM) | relative viability ([3]; first compound 0.8 µM) | relative viability ([3]; first compound 2.53 µM) | relative viability ([3]; first compound 8 µM) | relative viability ([4]; first compound 0.5 µM) | relative viability ([4]; first compound 5 µM) | relative viability ([4]; first compound 15.81 µM) | relative viability ([4]; first compound 50 µM) | relative viability ([2]; first compound 1.581 µM) | relative viability ([4]; first compound 1.581 µM)
1 | NCI-H2087 | 0.899 | 1.08 | 1.08 | 0.906 | 1.14 | 0.466 | 0.541 | 0.452 | 0.456 | 0.676 | 0.908 | 0.734 | 0.955 | 0.916 | 0.265 | 0.281 | 0.217 | 0.251 | – | –
2 | NCI-H2126 | 0.691 | 0.745 | 0.707 | 0.818 | 0.729 | 0.537 | 0.55 | 0.485 | 0.456 | 1.07 | 1.11 | 1.09 | 1.09 | 1.08 | 0.793 | 0.794 | 0.839 | 0.733 | 0.505 | 0.676
3 | NCI-H2228 | 1.08 | 1.13 | 1.21 | 1.23 | 0.889 | 0.331 | 0.42 | 0.244 | 0.355 | 0.904 | 1.03 | 1.04 | 1.18 | 0.953 | 0.221 | 0.246 | 0.247 | 0.212 | 0.205 | 0.237
4 | NCI-H2347 | 0.853 | 0.832 | 0.939 | 1.04 | 1.03 | 0.324 | 0.507 | – | 0.499 | 0.747 | 1.08 | 0.758 | 1.02 | 1.02 | 0.573 | 0.534 | – | 0.476 | 0.384 | 0.452
5 | NCI-H2405 | 1.11 | – | 0.967 | 1.31 | 1.29 | 0.442 | – | 0.335 | 0.366 | 1.02 | 1 | 0.944 | 0.994 | 1.11 | 0.743 | – | 0.719 | 0.671 | 0.386 | 0.703
6 | NCI-H3122 | 1.09 | 1.04 | 0.952 | 1 | 1.02 | 0.37 | 0.305 | 0.289 | 0.264 | 1.08 | 1 | 0.997 | 0.999 | 1.07 | 0.516 | 0.371 | 0.275 | 0.442 | – | –
7 | PC-3 [JPC-3] | 0.368 | 0.459 | 0.419 | 0.47 | 0.444 | 0.481 | 0.521 | 0.5 | 0.488 | 0.806 | 0.84 | 0.83 | 0.959 | 0.859 | 0.838 | 0.883 | 0.815 | 0.702 | 0.48 | 0.824
8 | PC-14 | 0.285 | 0.351 | 0.279 | 0.382 | 0.315 | 0.624 | 0.432 | 0.537 | 0.53 | 0.872 | 0.891 | 0.846 | 0.997 | 0.721 | 0.547 | – | 0.564 | 0.665 | 0.555 | 0.542
9 | RERF-LC-KJ | 0.816 | 0.889 | 0.839 | 0.804 | 0.84 | 0.424 | 0.401 | 0.417 | 0.341 | 1.07 | 1.15 | 1.24 | 1.04 | 0.98 | 0.415 | 0.483 | 0.493 | 0.357 | 0.441 | 0.428
10 | SK-LU-1 | 0.803 | 0.972 | 0.825 | 1.13 | 0.697 | 0.48 | 0.323 | 0.365 | 0.245 | – | – | 1.02 | 1.15 | 1.5 | 0.306 | 0.289 | 0.326 | 0.276 | 0.495 | 0.28
11 | SW 1573 | 1.19 | 1.17 | 1.07 | 1.04 | 1.05 | 0.315 | 0.336 | 0.262 | 0.247 | 0.995 | 1.03 | 1.09 | 0.869 | 0.777 | 0.206 | 0.164 | 0.199 | 0.177 | 0.326 | 0.129
